Reference: PMC10694292, “Increased sinusoidal export of drug glucuronides is a compensative mechanism in liver cirrhosis of mice” (Frontiers in Pharmacology, 2023)
Values joined by “and” are separate entries in the source; they are usually repeats but may differ in a detail not shown here. Equal entries are not always repeated. Where two headings read alike, the source gives them in different places.

How the values were obtained:
[1] = cited from earlier work
[2] = mouse, in vivo
[3] = human, cited from earlier work
[4] = rat, cited from earlier work
[5] = mouse, cited from earlier work
[6] = humans, cited from earlier work
[7] = cited from earlier work; remark: listed apart in the source
[8] = Drug cocktail i.v. in CCl4-cirrhotic and control mice: plasma concentrations and AUC; details: for Measured plasma concentrations of parent compound in cirrhotic mice: accompanying increased glucuronides
[9] = Drug cocktail i.v. in mice: 24 h urine, fraction of dose excreted; details: mice, after drug cocktail administration
[10] = cited from earlier work; remark: listed apart in the source
[11] = Drug cocktail i.v. in mice: 2 h bile, fraction of dose excreted; details: for Mean fraction of dose excreted to bile: mice, 2 h after drug administration
[12] = human, possibly optimized; ref Tubic et al., 2006; cited from earlier work
[13] = DrugBank, predicted AlogPS, ref Wishart et al., 2017
[14] = DrugBank, predicted ChemAxon, ref Wishart et al., 2017
[15] = optimized (mouse), ref Schenk et al., 2017
[16] = DrugBank, ref Wishart et al., 2017
[17] = experimental (morphine: logP uncharged), ref Avdeef, 1996
[18] = experimental, ref Vree and Verwey-van Wissen

Cn1c(=O)[nH]c2ncn(C)c2c1=O [Paraxanthine, 1,7-Dimethylxanthine]
Solubility ([1]; DrugBank, AlogPS prediction, ref Wishart et al., 2017): 9130 µg/mL | Lipophilicity [1, 13]: -0.63 | Lipophilicity [1, 14]: 0.27 | pKa ([1]; ref FooDB): Neutral | Mean fraction of dose excreted to urine [2]: 2% | Fraction unbound ([3]; measured, ref Lelo et al., 1986): 0.56 | Fraction unbound ([4]; measured, ref Bortolotti et al., 1985): 0.85

Cn1c(=O)c2c(ncn2C)n(C)c1=O [Caffeine, caffeine]
Fraction unbound [5]: 0.70 | Fraction excreted unchanged to urine ([6]; ref Nehlig, 2018): 0.5-2% | Mean fraction of dose excreted to urine [2]: 1% | Share of systemic clearance due to Cyp1a2 ([7]; C57BL/6N mice, ref Buters et al., 1996): 88% | Fraction excreted unchanged to urine ([7]; mice, ref Bonati et al., 1985): about 5%

Cc1ncc2n1-c1ccc(Cl)cc1C(c1ccccc1F)=NC2 [Midazolam, midazolam]
Solubility ([1]; Ref pH: 6.5, ref Heikkinen et al., 2012): 50 µg/mL | Lipophilicity ([1]; measurement, ref Poulin and Theil, 2002): 2.95 | pKa ([1]; midazolam: experimental, ref Poulin and Theil, 2002): 5.82 | Lipophilicity [1, 15]: 3.33 | Lipophilicity ([1]; optimized, ref Britz et al., 2019): 3.13 | pKa ([1]; prediction, ref Nguyen et al., 2016): 6.04 | Lipophilicity ([1]; prediction, ref Wishart et al., 2017): 3.89 | pKa ([1]; ref Schenk et al., 2017): 6.14 | pKa (Base) ([1]; ref Wishart et al., 2017): 6.57 | Measured plasma concentrations of parent compound in cirrhotic mice [8]: decreased | Mean fraction of dose excreted to urine [9]: below 1% | Fraction unbound ([10]; measurement, mouse, ref Varkhede et al., 2018): 0.08 | Fraction unbound ([10]; species not given, ref Maurer et al., 2005, Schenk et al., 2017): 0.046 | Fraction unbound [3, 16]: 0.03 | Fraction unbound ([4]; ref Poulin and Theil, 2002): 0.027

CN1CC[C@]23c4c5ccc(O)c4O[C@H]2[C@@H](O)C=C[C@H]3[C@H]1C5 [Morphine, morphine]
Mean fraction of dose excreted to urine [9]: 1%

COc1ccc2c3c1O[C@H]1[C@@H](O)C=C[C@H]4[C@@H](C2)N(C)CC[C@@]341 [Codeine, codeine]
Lipophilicity ([1]; DrugBank, experimental, ref Wishart et al., 2017): 1.39 | Lipophilicity [1, 17]: 1.19 | Measured plasma concentrations of parent compound in cirrhotic mice [8]: decreased | Mean fraction of dose excreted to bile [11]: below 1% | Mean fraction of dose excreted to urine [9]: 3% | Fraction unbound [3, 16]: 0.75 | Fraction unbound [3, 18]: 0.44

COc1ccc2c3c1O[C@H]1[C@@H](O)C=C[C@H]4[C@@H](C2)NCC[C@@]341 [Norcodeine, norcodeine]
Lipophilicity [1, 13]: 0.99 | Lipophilicity [1, 14]: 0.96 | Lipophilicity [1, 17]: 0.69 | pKa (Base) ([1]; ref Avdeef, 1996): 9.22 | Phase I metabolite in blood (formation), cirrhotic vs control, experimental data ([8]; i.v. drug cocktail): reduced formation | Mean fraction of dose excreted to urine [9]: 3% | Fraction unbound [3, 18]: 0.765

CC(C)(C)NCC(O)COc1ccc(NC(=O)NC2CCCCC2)cc1 (stereo not shown) [Talinolol, talinolol]
Fraction unbound ([5]; optimized (talinolol: possibly optimized), ref Thiel et al., 2015): 0.65 | Lipophilicity [1, 13]: 2.91 | Lipophilicity [1, 14]: 2.8 | octanol-water partition coefficient ([1]; at pH=7.5, ref Gramatté et al., 1996): 12 | Lipophilicity [1, 15]: 2.3 | Lipophilicity ([1]; ref Gramatté et al., 1996): 1.08 | Solubility ([1]; ref Gramatté et al., 1996): 3.4 mM | pKa (Base) ([1]; ref Matthaei et al., 2016): 9.3 | logP from the DrugBank database as quoted in text ([1]; rounded values, ref DrugBank): 2.9 | Median fraction of dose found in bile ([6]; after IV administration, ref Terhaag et al., 1989): 9.3% | Dose recovered unchanged from urine ([6]; ref Trausch et al., 1995): about 60% | Amount in bile, cirrhotic vs control mice ([11]; 2 h bile): significantly increased | Mean fraction of dose excreted to bile [11]: 0.5% and < 1% | Mean fraction of dose excreted to urine [9]: 4% and < 5% | Fraction unbound ([3]; measured, ref Obach et al., 2008): 0.39 | Fraction unbound [12]: 0.45
